Measured values from PubChem BioAssay (NCI).
Where “and” joins values, the source holds several entries; their conditions need not be identical. Identical values can stand only once.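 Test compounds were applied to cells in 96-well plates for 48 hours at 5 doses. At the GI50, growth is halved. TGI is the concentration that stops growth completely.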

Columns and labels:
Test in all cases: NCI tumour cell line growth inhibition, 48 h
HCC-2998 colon = test system: HCC-2998 colon
KM12 colon = test system: KM12 colon
PC-3 prostate = test system: PC-3 prostate
HOP-62 NSCLC = test system: HOP-62 NSCLC
SK-MEL-28 melanoma = test system: SK-MEL-28 melanoma
BT-549 breast = test system: BT-549 breast
IGROV1 ovarian = test system: IGROV1 ovarian
OVCAR-5 ovarian = test system: OVCAR-5 ovarian
UACC-62 melanoma = test system: UACC-62 melanoma
SN12C renal = test system: SN12C renal

Structure (SMILES) | GI50 (HCC-2998 colon) | TGI (HCC-2998 colon) | GI50 (KM12 colon) | TGI (KM12 colon) | GI50 (PC-3 prostate) | TGI (PC-3 prostate) | GI50 (HOP-62 NSCLC) | TGI (HOP-62 NSCLC) | GI50 (SK-MEL-28 melanoma) | TGI (SK-MEL-28 melanoma) | GI50 (BT-549 breast) | TGI (BT-549 breast) | GI50 (IGROV1 ovarian) | TGI (IGROV1 ovarian) | GI50 (OVCAR-5 ovarian) | TGI (OVCAR-5 ovarian) | GI50 (UACC-62 melanoma) | TGI (UACC-62 melanoma) | GI50 (SN12C renal) | TGI (SN12C renal)
NC(=S)N/N=C/c1ncccc1O | 3.08 µM | > 42.3 µM and 166 µM | 4.67 µM | > 1000 µM | 0.895 µM | > 1000 µM | 2.6 µM | 11.1 µM and 16.7 µM | 5.86 µM | > 1000 µM | 1.58 µM | > 1000 µM | 2.88 µM | > 96.7 µM and 380 µM | 5.21 µM | > 82.4 µM and 154 µM | 1.67 µM | 11 µM and 9.55 µM | 2.04 µM | 24.1 µM and 45.2 µM
O=[N+]([O-])c1ccccc1N=Nc1c(O)[nH]c2c(Cl)cc(Cl)cc12 |  | > 100 µM |  | > 100 µM |  | > 100 µM |  | > 23.1 µM |  | > 100 µM |  | 30.5 µM |  | > 100 µM |  | > 100 µM |  | > 100 µM |  | > 100 µM
CCCCOCCOC1=C(Cl)C(=O)c2c(O)ccc(O)c2C1=O |  | 6.01 µM |  | 3.37 µM |  | 3.08 µM |  | 2.49 µM |  | 1.23 µM |  | 0.341 µM |  | 2.47 µM |  | 2.66 µM |  | 2.64 µM |  | 1.59 µM
CCn1cc(-c2ccnc3[nH]c(-c4cccc(CN(C)C)c4)cc23)c(-c2ccc(NC(=O)N(C)C)cc2)n1 | 7.29 µM and > 10 µM | 21.5 µM and > 10 µM | 1.06 µM and 1.62 µM | 13.5 µM and > 10 µM | 1.46 µM and 3.02 µM | 27 µM and > 10 µM | 0.385 µM and 1.28 µM | 14.4 µM and > 10 µM | 3.45 µM and > 10 µM | 17.1 µM and > 10 µM | 1.45 µM and 2.3 µM | 17.3 µM and > 10 µM | 3.47 µM and 1.9 µM | 33.2 µM and > 10 µM | 1.56 µM and 4.74 µM | 14.6 µM and > 10 µM | 2.49 µM and 5.74 µM | 22.5 µM and > 10 µM | 1.38 µM and 0.994 µM | > 57.8 µM
O=c1[nH]c(-c2cccc(F)c2)cc2cc(F)ccc12 | 1.91 µM | > 100 µM | 0.307 µM | > 100 µM | 0.391 µM | > 100 µM | 0.495 µM | > 100 µM | 7.5 µM | > 100 µM | 0.737 µM | > 100 µM | 0.822 µM | > 100 µM | 1.74 µM | > 100 µM | 0.571 µM | > 100 µM | 1.31 µM | > 100 µM
CCOC(=O)c1c(C)c2c(n1Cc1ccccc1)CSCC2=O | 25.4 µM | > 100 µM | 15 µM | 37.9 µM | 13.6 µM | 68.1 µM | 22.9 µM | 63.5 µM | 22.2 µM | 55.7 µM | 21 µM | 77.6 µM | 16.9 µM | > 100 µM | 20.9 µM | 89.1 µM | 10.3 µM | 29.9 µM | 26 µM | > 100 µM
